Reference: ChEMBL document CHEMBL1125514, “Quantitative structure-activity relationships of N2-phenylguanines as inhibitors of herpes simplex virus thymidine kinases” (J Med Chem, 1992)

Assays:
Thymidine kinase [1] = biological target: T1, Thymidine kinase (Human herpesvirus 2, UniProt Q6L709); assay: Inhibitory activity against HSV-2 thymidine kinase isolated from HeLa cells; type: cell-free; conditions: read-out: Log 1/IC50 (converted)
T1 sequence (Q6L709 whole entry): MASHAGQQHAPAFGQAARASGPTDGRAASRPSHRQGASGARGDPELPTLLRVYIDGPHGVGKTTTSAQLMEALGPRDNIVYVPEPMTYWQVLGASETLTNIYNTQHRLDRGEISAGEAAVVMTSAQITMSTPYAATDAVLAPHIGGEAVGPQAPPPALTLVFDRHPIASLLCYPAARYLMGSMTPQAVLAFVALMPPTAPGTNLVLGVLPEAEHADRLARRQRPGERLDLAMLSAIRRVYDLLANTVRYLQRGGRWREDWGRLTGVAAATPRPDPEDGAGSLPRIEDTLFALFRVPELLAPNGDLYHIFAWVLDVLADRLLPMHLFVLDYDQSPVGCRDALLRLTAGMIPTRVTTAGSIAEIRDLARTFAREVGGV

Thymidine kinase [2] = biological target: T2, Thymidine kinase (Human herpesvirus 1 (strain SC16) (HHV-1) (Human herpes simplex virus1), UniProt P06479); assay: Inhibitory activity against HSV-1 thymidine kinase isolated from HeLa cells; type: cell-free; conditions: for IC50: read-out: Log 1/IC50 (converted)
T2 sequence (P06479 whole entry): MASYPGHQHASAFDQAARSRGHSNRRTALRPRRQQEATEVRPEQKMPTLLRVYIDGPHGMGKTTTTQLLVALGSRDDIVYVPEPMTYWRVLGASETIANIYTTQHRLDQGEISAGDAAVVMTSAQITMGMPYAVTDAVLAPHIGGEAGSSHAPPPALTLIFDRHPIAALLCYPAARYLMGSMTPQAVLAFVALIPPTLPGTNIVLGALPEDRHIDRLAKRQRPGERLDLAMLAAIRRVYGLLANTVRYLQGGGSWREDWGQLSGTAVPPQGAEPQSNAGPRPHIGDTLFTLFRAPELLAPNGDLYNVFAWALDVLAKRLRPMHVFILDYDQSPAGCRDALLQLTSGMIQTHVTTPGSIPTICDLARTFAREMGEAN

SMILES | IC50 (Thymidine kinase [1]) | IC50 (Thymidine kinase [2]) | Log 1/IC50 (Thymidine kinase [2]; hela)
Oc1[nH]c(Nc2cccc(CCl)c2)nc2ncnc1-2 | 1.35 µM | 1.41 µM | –
Oc1[nH]c(Nc2ccc(Cl)cc2)nc2ncnc1-2 | 50.1 µM | 100 µM | –
CCCc1ccc(Nc2nc(O)c3[nH]cnc3n2)cc1 | 46.8 µM | 30.2 µM | –
NCc1cccc(Nc2nc(O)c3[nH]cnc3n2)c1 | 20 µM | 30.2 µM | –
[N-]=[N+]=NCc1cccc(Nc2nc3ncnc-3c(O)[nH]2)c1 | 1.51 µM | 0.794 µM | –
Oc1[nH]c(Nc2cccc(CBr)c2)nc2ncnc1-2 | 1.2 µM | 1 µM | –
Oc1[nH]c(Nc2cccc(I)c2)nc2ncnc1-2 | 1.1 µM | 1.1 µM | –
CC(C)c1ccc(Nc2nc(O)c3[nH]cnc3n2)cc1 | 100 µM | 200 µM | –
CCCCc1ccc(Nc2nc(O)c3[nH]cnc3n2)cc1 | 50.1 µM | – | 4.3
O=c1nc(Nc2cccc(CO)c2)[nH]c2nc[nH]c12 | 20 µM | 25.1 µM | –
Oc1[nH]c(Nc2ccc(F)c(Cl)c2)nc2ncnc1-2 | 2.51 µM | 7.94 µM | –
Oc1[nH]c(Nc2ccc(F)cc2)nc2ncnc1-2 | 257 µM | 302 µM | –
O=c1[nH]c(Nc2ccc(F)c(F)c2)nc2nc[nH]c12 | 2.19 µM | 50.1 µM | –
Oc1[nH]c(Nc2ccc(Cl)c(C(F)(F)F)c2)nc2ncnc1-2 | 5.01 µM | 20 µM | –
CCCCc1ccc(Nc2nc(O)c3[nH]cnc3n2)cc1C | – | 39.8 µM | –
CCCCCc1ccc(Nc2nc(O)c3[nH]cnc3n2)cc1 | 251 µM | 501 µM | –
CCc1cccc(Nc2nc3nc[nH]c3c(=O)[nH]2)c1 | 3.98 µM | 2.51 µM | –
Cc1ccc(Nc2nc3nc[nH]c3c(=O)[nH]2)cc1 | 6.03 µM | 50.1 µM | –
O=c1[nH]c(Nc2cccc(C(F)(F)F)c2)nc2nc[nH]c12 | 0.1 µM | 0.151 µM | –
N#Cc1cccc(Nc2nc3ncnc-3c(O)[nH]2)c1 | 0.398 µM | 5.01 µM | –
Oc1[nH]c(Nc2cccc(Br)c2)nc2ncnc1-2 | 0.603 µM | 1.51 µM | –
Oc1[nH]c(Nc2ccc(I)cc2)nc2ncnc1-2 | 8.91 µM | 39.8 µM | –
Oc1[nH]c(Nc2cccc(Cl)c2)nc2ncnc1-2 | 0.347 µM | 1.51 µM | –
Oc1[nH]c(Nc2ccc(Br)cc2)nc2ncnc1-2 | 0.603 µM | 1 µM | –
O=c1[nH]c(Nc2ccc(O)cc2)nc2nc[nH]c12 | 20 µM | 141 µM | –
Oc1[nH]c(Nc2ccc3ccccc3c2)nc2ncnc1-2 | 10 µM | 39.8 µM | –
Oc1[nH]c(Nc2ccc(C(F)(F)F)cc2)nc2ncnc1-2 | 39.8 µM | 30.2 µM | –
Oc1[nH]c(Nc2ccc(Br)c(Br)c2)nc2ncnc1-2 | 1.29 µM | 3.02 µM | –
Cc1ccc(Nc2nc(O)c3[nH]cnc3n2)cc1CO | 200 µM | 269 µM | –
